The values that follow come from PubChem BioAssay AID504539 (Broad Institute, 2011).

For this experiment, the system named is Cell-based prion protein 5' UTR reporter, plate reader. The experiment in a line: prion protein 5' UTR mRNA inhibitors – cell-based, plate reader, cherry-picked samples, dose response (AID 504539).
For the compound `Cc1nn(-c2ccccc2)c(C)c1/C=N/NC(=O)c1cc(-c2cccs2)[nH]n1`, the AC50 is 1070 nM.
Next, `O=c1c2ccccc2cnn1CCOc1ccccc1`: 354 nM.
Consider `COc1cc(C2c3cc4c(cc3C(OC3OC5COC(c6cccs6)OC5C(O)C3O)C3COC(=O)C23)OCO4)cc(OC)c1O` (stereo not drawn), for which the AC50 is 657 nM.
The same measure for `Cc1ccc(/C=N/NC(=O)COc2ccccc2-c2ccccc2)cc1`: 172 nM; for `COc1ccc(-c2cc3nc(C)n(N)c(=O)c3s2)cc1`: 113 nM.
Next, `COC1C(O)C(C)OC(OC2CCC3(C=O)C(CCC4C3CCC3(C)C(C5=CC(=O)OC5)CCC43O)C2)C1O` (stereo not drawn): less than 38 nM; `COc1ccc(/C=C2\SC(=S)N(CCCC(=O)NNC(=O)c3ccccc3O)C2=O)cc1`: 630 nM; `CCn1c(C)cc(C(=O)CN2C(=O)c3ccccc3S2(=O)=O)c1C`: 1260 nM.
Next, `CN(C(=O)OC(C)(C)C)c1ccc(-c2nc3ccccc3s2)cc1`: less than 38 nM; `Cc1nc2ncccn2c1-c1csc(Nc2ccc(N(C)C)cc2)n1`: 168 nM.
Regarding `O=[N+]([O-])c1cccc2nc3ccccc3c(NCCCn3ccnc3[N+](=O)[O-])c12`, the AC50 was 76 nM.
As for `NC(=O)c1cc([N+](=O)[O-])ccc1NCc1ccc(N)cc1`, the AC50 was 490 nM.
Next, `O=C(NCCc1ccccc1)c1ccc2c(c1)OCCCO2`: 187 nM.
For `Cc1nn(C(C)(C)C)c(C)c1/C=N/OC(=O)Nc1ccc(Cl)cc1`, the AC50 is less than 38 nM.
Next, `CC(=O)OC1CC(OC2C(O)CC(OC3C(O)CC(OC4CCC5(C)C(CCC6C5CCC5(C)C(C7=CC(=O)OC7)C(O)CC65O)C4)OC3C)OC2C)OC(C)C1OC1OC(CO)C(O)C(O)C1O` (stereo not drawn): 370 nM; `CC1=CC2OC3CC4OC(=O)C=CC=CC(C(C)O)OCC(O)C(C)CC(=O)OCC2(CC1O)C4(C)C31CO1` (stereo not drawn): less than 38 nM.
On to `COc1ccc(C2=Nn3c(nnc3-c3ccccc3OC)SC2)cc1OC1CCCC1`, for which the AC50 was 2970 nM.
The same measure for `Cc1cccc2cc(C#N)c(SCC(=O)N3CC(=O)Nc4ccccc43)nc12`: 960 nM; for `CCN(CCO)c1ccc(N=Nc2cc(C)[nH]n2)cc1`: 471 nM; for `CCCOc1ccccc1C1CC(=O)Nc2cc3c(cc21)OCCO3` (stereo not drawn): 2900 nM.
Next, `Cc1c(C(=O)OC2CCCC2)[nH]c2c1C(=O)CC(c1ccco1)C2` (stereo not drawn): 791 nM; `NC(=O)c1cc2c3ccccc3ccn2c1-c1ccccc1`: 635 nM; `Cc1csc(NC(=O)CCc2c(C)nc3cc(-c4ccc(Cl)cc4)nn3c2C)n1`: 1160 nM.
In the case of `CCOC(=O)COc1cccc2c(=O)n(CC(=O)NCc3ccc(F)cc3)ccc12`, the AC50 was 1540 nM.
The same measure for `COc1ccc(OC)c(C2C3=C(COC3=O)Nc3cc4c(cc32)OCO4)c1` (stereo not drawn): 197 nM.
The same measure for `N/C(=N\OCc1ccc([N+](=O)[O-])cc1)c1ccccn1`: 219 nM; for `CCN(CC)c1ccc2cc(-c3nc4ccccc4[nH]3)c(=O)oc2c1`: 868 nM.
The same measure for `C/C(=N\NC(=O)c1n[nH]c2c1CCC2)c1cccs1`: 401 nM; for `CCOc1ccc2c(c1)C(C)=CC(C)(C)N2S(=O)(=O)c1ccc(C)cc1`: 1590 nM; for `CCOc1ccc(/C=C2\SC(=S)N(CCC(=O)O)C2=O)cc1`: 277 nM.
With `C[C@@H]1O[C@@H](O[C@@H]2C=C3CCC4C(CC[C@]5(C)[C@@H](c6ccc(=O)oc6)CC[C@]45O)[C@@]3(C)CC2)[C@H](O)[C@H](O)[C@H]1O` (stereo partly drawn), the AC50 is less than 38 nM.
Next, `C[C@H]1O[C@@H](OC2CC[C@]3(C=O)[C@H]4CC[C@]5(C)[C@@H](C6=CC(=O)OC6)CC[C@]5(O)[C@@H]4CC[C@]3(O)C2)CC2OC(C)(C)OC21` (stereo partly drawn): 123 nM.
Next, `CCN(CC)c1ccc(C(=C2C=CC(=[N+](CC)CC)C=C2)c2ccccc2)cc1`: 892 nM; `CCOc1ccc(S(=O)(=O)Nc2cc(OC)ccc2OC)cc1`: 873 nM; `C[C@H]1CCC/C=C/[C@@H]2C[C@H](O)C[C@H]2[C@H](O)[C@H](S(=O)c2ccc(O)cc2)CC(=O)O1` (stereo partly drawn): 182 nM.
The same measure for `CC[C@@]1(O)C(=O)OCc2c1cc1n(c2=O)Cc2cc3c(NC(=O)CN)cccc3nc2-1`: 232 nM; for `COC(=O)c1cc(C(=O)N2CCN(c3cccc(Cl)c3)CC2)cc([N+](=O)[O-])c1`: 470 nM; for `COc1ccc(C[C@H]2NC[C@H](O)[C@H]2OC(C)=O)cc1`: 378 nM.
Consider `CC(=O)O[C@H]1C(=O)[C@]2(C)[C@H]([C@H](OC(=O)c3ccccc3)[C@]3(O)C[C@H](OC(=O)[C@H](O)[C@@H](NC(=O)c4ccccc4)c4ccccc4)C(C)=C1C3(C)C)[C@]1(OC(C)=O)CO[C@@H]1C[C@@H]2O`, for which the AC50 is 188 nM.
Next, `Cc1ccc(C(=O)Nc2cnc3ccccc3c2)cc1`: 94 nM; `COC(=O)CCn1nnc(-c2ccc(C(C)C)cc2)n1`: 314 nM; `O=C(OCC(F)(F)F)c1cccc(COc2ccc3ccccc3c2)c1`: 376 nM.
Turning to `Cc1ccc(C(=O)c2cc([N+](=O)[O-])ccc2N2CCCCC2)cc1`, the AC50 is 848 nM.
As to `C[C@H]1[C@@H](OS(=O)(=O)O)C[C@@H]2C[C@H]([C@@H](O)c3cc(=O)[nH]c(=O)[nH]3)NC3=NC[C@H]1N32`, the AC50 is 2560 nM.
The same measure for `CN(C)c1ccc(/C=N/Nc2cccc(C(=O)O)c2)cc1`: 547 nM; for `Cc1ccc(NC(=O)c2cc3ccccc3oc2=O)cc1S(=O)(=O)N(C)C`: less than 38 nM.
The same measure for `CC(C)(C)C1C/C(=C/c2ccccn2)C(=O)/C(=C/c2ccccn2)C1` (stereo not drawn): 815 nM; for `Brc1ccc(N=Nc2ccc3ccccc3n2)cc1`: 543 nM.
The same measure for `COc1cc2cc(C(=O)N3CC(COS(C)(=O)=O)c4ccc(O)cc43)[nH]c2c(OC)c1OC` (stereo not drawn): less than 38 nM.
Consider `C(=NN1CCCCCC1)c1ccc2ccccc2n1`, for which the AC50 was less than 38 nM.
As to `C=CC[n+]1c(-c2ccc(C)cc2)csc1Nc1ccc(NC(C)=O)cc1`, the AC50 was 3620 nM.
The same measure for `CC(C)(O)/C=C/C(=O)C(C)(O)C1C(O)CC2(C)C3CC=C4C(C=C(O)C(=O)C4(C)C)C3(C)C(=O)CC12C` (stereo not drawn): 104 nM; for `Cc1ccc(C(=O)c2cc([N+](=O)[O-])ccc2N2CCOCC2)c(C)c1`: 2940 nM.
Next, `CC(C)Oc1ccc(C(=O)Nc2nc3ccccc3[nH]2)cc1`: 304 nM.
The same measure for `CC1=Nc2cc(C(=O)NCc3ccco3)ccc2Sc2ccc(C)cc21`: 1670 nM; for `Nc1nc(F)nc2c1ncn2[C@@H]1O[C@H](CO)[C@@H](O)[C@H]1O`: 483 nM; for `CCCC1=Nc2cc(C(=O)NCCCOCC)ccc2Sc2ccccc21`: 434 nM.
Take `COC(=O)c1ccc(Oc2cc(C)nc(-n3nc(C)cc3C)n2)cc1`: the AC50 was 536 nM.
Next, `O=C(CN1C(=O)c2ccccc2S1(=O)=O)c1ccc(OC(F)F)cc1`: 657 nM; `O=C(Nc1cc2ccccc2oc1=O)c1ccccc1`: 696 nM; `C=CCOc1ccc(/C=C2\SC(=S)N(CCC(=O)O)C2=O)cc1`: 963 nM.
The same measure for `CCOC(=O)C(C)Oc1cccc2c(=O)n(CC(=O)NCc3ccc(F)cc3)ccc12` (stereo not drawn): 486 nM.
In the case of `COC(=O)C12OCC34C(CC5C(C)=C(O)C(=O)CC5(C)C3C(O)C1O)OC(=O)C(OC(=O)C=C(C)C)C24` (stereo not drawn), the AC50 is less than 38 nM.
As to `c1ccc(-c2ccc(-c3nc(-c4ccccn4)no3)cc2)cc1`, the AC50 is 224 nM.
The same measure for `Cc1ccc(-c2nc(-c3ccccn3)no2)cc1`: 140 nM.
Regarding `COC(=O)CCC(=O)NC(=S)Nc1sc(C)c(C)c1C(N)=O`, the AC50 was 636 nM.
The same measure for `CC(=O)O[C@H]1[C@H]2O[C@]23[C@@H]2CC[C@]4(O)C[C@@H](O)CC[C@]4(C)C2CC[C@]3(C)[C@H]1c1ccc(=O)oc1` (stereo partly drawn): 120 nM.
Next, `Cc1ccc(NC(=O)/C=C/c2ccco2)nc1`: 287 nM; `COC(=O)Cc1[nH]n(-c2nc3ccccc3s2)c(=O)c1C(C)=Nc1ccc(Cl)cc1`: 70 nM.
The same measure for `COC(=O)C12OCC34C(CC5C(C)=C(O)C(=O)CC5(C)C3C(O)C1O)OC(=O)C(OC(=O)/C=C(\C)C(C)C)C24` (stereo not drawn): less than 38 nM; for `N#Cc1c(NC(=O)CSc2ncn[nH]2)sc2c1CCCC2`: 303 nM.
Take `COCCn1c(C)cc(C(=O)CSc2nnnn2C2CCCC2)c1C`: the AC50 was 1140 nM.
Next, `CC(=O)OC(C)(C)/C=C/C(=O)C(C)(O)C1[C@H](O)C[C@@]2(C)C3CC=C4C(CC[C@@H](O)C4(C)C)[C@]3(CO)C(=O)C[C@]12C` (stereo partly drawn): 85 nM.
The same measure for `NC(=S)NN=Cc1nccc2ccccc12`: 2800 nM.
Next, `CC[C@@H](C)[C@H](C(CC(=O)N1CCCC1[C@@H](OC)[C@H](C)C(=O)N[C@H](Cc1ccccc1)c1nccs1)OC)N(C)C(=O)[C@H](NC(=O)[C@@H](C(C)C)N(C)C)C(C)C` (stereo partly drawn): 117 nM.
For `Cc1ccc(-c2cn3nc(C)c(C)nc3n2)cc1`, the AC50 was 485 nM.
The same measure for `Cc1cc(C2=NNC(=NC3CC3)SC2)c(C)n1-c1ccccc1`: less than 38 nM; for `Cc1cccc(/C=N/Nc2ccc3ccccc3n2)c1`: 456 nM.
Next, `CC(C)CCCCCCCCCCCCC(=O)NCC(=O)NC1C(O)C(O)C(Nc2ncnc3nc[nH]c23)OC1C(O)CO` (stereo not drawn): 87 nM; `Cc1ccc(C(=O)/C=C/Nc2ccccn2)cc1`: 233 nM; `CCCCCOC(=O)c1[nH]c2c(c1C)C(=O)CC(c1ccco1)C2` (stereo not drawn): 226 nM.
The same measure for `CC1CCOC(=O)C=CC=CC(=O)OC2CC3OC4C5OC5(C)C(O)CC4(COC(=O)C1O)C2(C)C31CO1` (stereo not drawn): 148 nM.
As to `CC(=O)OC1(C)CC(C)C(=O)C(C(O)CC2CC(=O)NC(=O)C2)C1` (stereo not drawn), the AC50 is 500 nM.
For `CC1=C(N2CC2)C(=O)C(CO)=C(N2CC2)C1=O`, the AC50 was 154 nM.
Next, `C/C(=N\NC(=O)c1ccccc1NC(=O)c1ccc(Cl)cc1)c1ccncc1`: 418 nM; `CCN(CCCl)c1cc(CN(C)C)cc(NC(=O)c2ccc(C(=O)Nc3cc(CN(C)C)cc(N(CC)CCCl)c3)cc2)c1`: 472 nM.
Next, `Cc1ccc(C(=O)Nc2ncc(Cc3ccc(SC(F)F)cc3)s2)cc1`: 1560 nM; `CC1=CC(C)CC(C)OC(=O)CC(c2ccc(O)cc2)NC(=O)C(Cc2c(Br)[nH]c3ccccc23)N(C)C(=O)C(C)NC(=O)C(C)C1` (stereo not drawn): 146 nM.
